US20250129055A1, “GLUCOSIDE DERIVATIVE, AND PREPARATION METHOD THEREFOR AND APPLICATION THEREOF” (BEIJING INCREASE INNOVATIVE DRUG CO., LTD., priority 2020, published 2025)
Read-outs that look alike come from different tables or passages of the source.

Experiments:
[1] = tested on: Alloxan diabetic mice; test: Efficacy in Alloxan diabetes model mice; format: in vivo
Experimental: Test Example 3 Research on efficacy of the compounds of the present invention in in vivo anti-Alloxan diabetes model mice
Alloxan diabetes mice were used. Normal ICR mice (male, 22-24 g) were randomly divided into groups including normal group, model group (con), positive control group and test compound groups with four different doses (n=11), and the mice without injection of Alloxan were in a normal control group (n=10).
Mice were administered with drugs by gavage.
Single administration: Mice were fasted for 3 h, and then the fasting blood (0 min) was collected. Then the mice in each group were administered with drugs by gavage. After 1 h, they were administered with a glucose ([…]) solution. Blood was collected at 30 min, 60 min, 120 min, and 180 min after the glucose administration. The blood glucose level was measured using glucose oxidase-peroxidase method, and the area under the blood glucose curve was calculated.
On the 6th day of continuous administration, under the condition of no fasting, blood samples were collected from mice before administration (0 h), 1 h, 2 h, 4 h, 8 h and 24 h after administration to measure blood glucose.
On the 9th day of continuous administration, the mice were fasted for 1 h and then administered with drugs by gavage. An oral glucose tolerance test (OGTT) was performed 1 h after administration.
On the 16th day of continuous administration, under the condition of no fasting, urine samples were collected from mice 1 h after administration to measure the concentration of urine glucose.
On the 22nd day of continuous administration, the mice were fasted for 1 h and then administered with drugs by gavage, and blood samples were collected to measure the fasting blood glucose 1 h after administration.
On the 28th day of continuous administration, under the condition of no fasting, blood samples were collected from mice 1 h after administration to measure the random blood glucose.
On the 32nd day of continuous administration, under the condition of no fasting, blood samples were collected from mice to measure glycosylated hemoglobin (HbA1c).
The data were expressed as mean±SEM (n=10-11). The comparison between multiple groups was performed by one-way analysis of variance, and the comparison between two groups was performed by Dunnett's t test. Statistical graphing was performed using Graphpad Prism software.

[2] = tested on: mice; conditions: 3000 mg/kg once by gavage; for Death rate (%): 7 days; for Deaths D 1: day 1; for Deaths D 2: day 2; for Deaths D 3: day 3; for Deaths D 4: day 4; for Deaths D 5: day 5; for Deaths D 6: day 6; for Deaths D 7: day 7
Experimental: Test Example 5 Research on Safety of the Compounds of the Present Invention
The compounds of the present invention were subjected to the following acute toxicity studies in mice.
The symptoms of toxicity reaction and death time were recorded.
On the day before administration, the animals were fasted but provided with water for 17 h. Each test drug group was administered with the corresponding test drug once by gavage, and the blank control group was administered with the same dose of vehicle once by gavage.

**Q.** Which “Concentration of fasting blood glucose, the 9th day” value ([1]; 2.0 mg/kg, 9th day) does the source give for `CCOc1ccc(Cc2cc([C@@H]3O[C@H](CO)[C@@H](O)[C@H](O)[C@H]3O)ccc2Cl)cc1` [Dapagliflozin, reference compound] here?
**A.** The value was 256.7 ± 14.4 mg/dL.

**Q.** And the “Concentration of fasting blood glucose, the 22nd day” value ([1]; 2.0 mg/kg, 22nd day)?
**A.** Its value is 316.5 ± 18.6 mg/dL.

**Q.** And the HbA1c ([1]; 2.0 mg/kg, 32nd day)?
**A.** The HbA1c was 6.6 ± 0.5%.

**Q.** What about the “AUC of blood glucose” value ([1]; 2.0 mg/kg, OGTT on the 9th day) of the same molecule?
**A.** The value was 463.3 ± 28.0 mg·h/dL.

**Q.** And the “Concentration of blood glucose 0 min” value ([1]; 2.0 mg/kg, OGTT on the 9th day, 0 min)?
**A.** Its value is 256.7 ± 14.4 mg/dL.

**Q.** What about the “Concentration of blood glucose 30 min” value ([1]; 2.0 mg/kg, OGTT on the 9th day, 30 min) of the same molecule?
**A.** The value was 278.3 ± 17.6 mg/dL.

**Q.** What about the “Concentration of blood glucose 60 min” value ([1]; 2.0 mg/kg, OGTT on the 9th day, 60 min) of the same molecule?
**A.** The value was 227.3 ± 13.5 mg/dL.

**Q.** What about the “Concentration of blood glucose 120 min” value ([1]; 2.0 mg/kg, OGTT on the 9th day, 120 min) of the same molecule?
**A.** Its value is 178.9 ± 20.8 mg/dL.

**Q.** And the “AUC of blood glucose” value ([1]; 2.0 mg/kg, non-fasting, 6th day, 0-24 h)?
**A.** The value was 13216 ± 440.8 mg·h/dL.

**Q.** And the “Concentration of blood glucose 1 h” value ([1]; 2.0 mg/kg, non-fasting, 6th day, 1 h after administration)?
**A.** The value was 433.7 ± 19.5 mg/dL.

**Q.** What about the “Concentration of blood glucose 2 h” value ([1]; 2.0 mg/kg, non-fasting, 6th day, 2 h after administration) of the same molecule?
**A.** The value was 425.1 ± 22.5 mg/dL.

**Q.** And the “Concentration of blood glucose 4 h” value ([1]; 2.0 mg/kg, non-fasting, 6th day, 4 h after administration)?
**A.** Its value is 343.1 ± 17.8 mg/dL.

**Q.** And the “Concentration of blood glucose 8 h” value ([1]; 2.0 mg/kg, non-fasting, 6th day, 8 h after administration)?
**A.** Its value is 522.7 ± 34.0 mg/dL.

**Q.** And the “Concentration of blood glucose 24 h” value ([1]; 2.0 mg/kg, non-fasting, 6th day, 24 h after administration)?
**A.** Its value is 697.7 ± 17.6 ^ mg/dl.

**Q.** What about the “Concentration of blood glucose 0 h” value ([1]; 2.0 mg/kg, non-fasting, 6th day, before administration) of the same molecule?
**A.** Its value is 614.3 ± 9.6 ^ mg/dl.

**Q.** And the “Concentration of blood glucose (random)” value ([1]; 2.0 mg/kg, random blood glucose on the 28th day)?
**A.** Its value is 499.3 ± 13.0 mg/dL.

**Q.** And the “Duration of hypoglycemic effect” value ([1]; 6th day, dapagliflozin 2.0 mg/kg, Compound 2 0.25-2.0 mg/kg)?
**A.** The value was “no significant effect after 24 h”.

**Q.** And the “Death rate (%)” value ([2]; female)?
**A.** The value was 0%.

**Q.** And the “Deaths D 1” value ([2]; female)?
**A.** Its value is 0.

**Q.** And the “Deaths D 2” value ([2]; female)?
**A.** The value was 0.

**Q.** And the “Deaths D 3” value ([2]; female)?
**A.** The value was 0.

**Q.** And the “Deaths D 4” value ([2]; female)?
**A.** The value was 0.

**Q.** What about the “Deaths D 5” value ([2]; female) of the same molecule?
**A.** Its value is 0.

**Q.** What about the “Deaths D 6” value ([2]; female) of the same molecule?
**A.** Its value is 0.

**Q.** What about the “Deaths D 7” value ([2]; female) of the same molecule?
**A.** The value was 0.

**Q.** What about the “Death rate (%)” value ([2]; male) of the same molecule?
**A.** Its value is 80%.

**Q.** And the “Deaths D 1” value ([2]; male)?
**A.** Its value is 0.

**Q.** And the “Deaths D 2” value ([2]; male)?
**A.** Its value is 0.

**Q.** What about the “Deaths D 3” value ([2]; male) of the same molecule?
**A.** The value was 1.

**Q.** And the “Deaths D 4” value ([2]; male)?
**A.** The value was 1.

**Q.** What about the “Deaths D 5” value ([2]; male) of the same molecule?
**A.** The value was 0.

**Q.** And the “Deaths D 6” value ([2]; male)?
**A.** Its value is 2.

**Q.** What about the “Deaths D 7” value ([2]; male) of the same molecule?
**A.** Its value is 0.
